Reference: ChEMBL document CHEMBL5126521, “Analgesic Opioid Ligand Discovery Based on Nonmorphinan Scaffolds Derived from Natural Sources” (J Med Chem, 2022)
Square brackets hold non-standard residues; d marks the D form. Peptide text beside a SMILES is read from it.

Columns and labels:
[1] = Stability in rat brain homogenate assessed as compound remaining measured after 90 mins relative to control; type: ADME, tissue-based; details: read-out: Stability
[2] = Stability in mouse serum assessed as half life; type: ADME, cell-free
[3] = Stability in mouse brain homogenate assessed as half life; type: ADME, tissue-based
Mus musculus [4] = test: Antinociceptive activity in mouse administered icv; type: functional
Mu-type opioid receptor [5] = molecular target: Mu-type opioid receptor (Cavia porcellus, UniProt P97266); test: Antagonist activity at guinea pig ileum MOP; type: functional, tissue-based
Mu-type opioid receptor (Cavia porcellus, UniProt P97266), sequence (P97266 whole entry): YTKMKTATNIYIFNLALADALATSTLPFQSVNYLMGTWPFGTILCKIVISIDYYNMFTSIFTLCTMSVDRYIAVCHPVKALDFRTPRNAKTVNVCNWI

Mu-type opioid receptor [6] = molecular target: T1, Mu-type opioid receptor (Homo sapiens, UniProt P35372); test: Agonist activity at human recombinant MOP expressed in CHO cells by calcium mobilization assay; type: functional, cell-based
T1 sequence (P35372 whole entry): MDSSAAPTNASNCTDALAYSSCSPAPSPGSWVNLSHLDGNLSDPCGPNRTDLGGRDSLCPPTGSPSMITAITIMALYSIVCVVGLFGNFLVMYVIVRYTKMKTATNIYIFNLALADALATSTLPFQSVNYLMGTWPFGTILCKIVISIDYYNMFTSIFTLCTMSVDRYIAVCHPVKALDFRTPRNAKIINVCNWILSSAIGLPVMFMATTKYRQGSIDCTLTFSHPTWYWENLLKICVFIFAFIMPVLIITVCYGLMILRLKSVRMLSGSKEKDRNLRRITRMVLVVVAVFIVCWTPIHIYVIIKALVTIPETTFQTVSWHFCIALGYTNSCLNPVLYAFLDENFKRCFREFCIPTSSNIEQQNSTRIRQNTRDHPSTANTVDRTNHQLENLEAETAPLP

Mus musculus [7] = test: Antinociceptive activity in Swiss albino mouse assessed tail flick response in warm water administered icv; type: functional
Mu-type opioid receptor [8] = molecular target: Mu-type opioid receptor (Rattus norvegicus, UniProt P33535); test: Inhibition of Wistar rat brain membrane MOP; type: cell membranes
Mu-type opioid receptor (Rattus norvegicus, UniProt P33535), sequence (P33535 whole entry): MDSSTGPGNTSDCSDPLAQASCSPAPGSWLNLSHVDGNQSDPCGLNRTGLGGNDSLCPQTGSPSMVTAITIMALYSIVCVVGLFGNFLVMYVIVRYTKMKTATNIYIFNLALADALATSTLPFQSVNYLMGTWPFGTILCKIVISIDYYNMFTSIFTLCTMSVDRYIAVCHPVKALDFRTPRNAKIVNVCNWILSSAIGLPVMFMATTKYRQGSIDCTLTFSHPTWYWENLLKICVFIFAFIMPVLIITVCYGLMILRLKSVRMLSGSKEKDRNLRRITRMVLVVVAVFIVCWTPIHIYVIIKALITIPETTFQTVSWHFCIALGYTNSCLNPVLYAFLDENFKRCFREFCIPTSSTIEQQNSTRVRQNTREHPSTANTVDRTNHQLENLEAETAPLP

[9] = molecular target: Delta-type opioid receptor (Rattus norvegicus, UniProt P33533); test: Inhibition of Wistar rat brain membrane DOP; type: cell membranes
Delta-type opioid receptor (Rattus norvegicus, UniProt P33533), sequence (P33533 whole entry): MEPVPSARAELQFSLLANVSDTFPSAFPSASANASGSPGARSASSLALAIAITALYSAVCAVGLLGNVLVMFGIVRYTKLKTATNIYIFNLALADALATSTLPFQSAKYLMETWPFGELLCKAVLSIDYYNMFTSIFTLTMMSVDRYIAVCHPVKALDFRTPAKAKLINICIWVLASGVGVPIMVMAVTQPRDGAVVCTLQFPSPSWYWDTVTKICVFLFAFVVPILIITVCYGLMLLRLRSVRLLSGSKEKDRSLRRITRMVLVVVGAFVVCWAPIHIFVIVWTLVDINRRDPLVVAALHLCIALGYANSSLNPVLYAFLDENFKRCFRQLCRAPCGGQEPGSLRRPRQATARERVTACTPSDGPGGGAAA

Mu-type opioid receptor [10] = molecular target: T1, Mu-type opioid receptor; test: Binding affinity to MOP (unknown origin)
[11] = molecular target: T2, Delta-type opioid receptor (Homo sapiens, UniProt P41143); test: Binding affinity to DOP (unknown origin)
T2 sequence (P41143 whole entry): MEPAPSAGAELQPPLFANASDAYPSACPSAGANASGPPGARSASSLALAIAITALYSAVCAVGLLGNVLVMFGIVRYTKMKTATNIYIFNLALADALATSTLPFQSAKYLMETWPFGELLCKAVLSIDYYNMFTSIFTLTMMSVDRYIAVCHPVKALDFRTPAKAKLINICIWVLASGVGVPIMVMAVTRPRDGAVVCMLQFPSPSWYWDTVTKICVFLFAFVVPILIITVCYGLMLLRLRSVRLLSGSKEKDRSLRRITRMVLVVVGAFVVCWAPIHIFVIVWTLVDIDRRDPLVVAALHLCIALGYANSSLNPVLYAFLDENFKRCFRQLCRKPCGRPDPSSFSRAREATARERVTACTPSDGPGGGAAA

Rattus norvegicus = test: Antinociceptive activity in rat administered icv by tail pressure test relative to control; type: functional; set-up: concentration or dose not given beside the values
Mu-type opioid receptor [12] = molecular target: Mu-type opioid receptor (Mus musculus, UniProt P42866); test: Antagonist activity at mouse vas deferns MOP; type: functional
Mu-type opioid receptor (Mus musculus, UniProt P42866), sequence (P42866 whole entry): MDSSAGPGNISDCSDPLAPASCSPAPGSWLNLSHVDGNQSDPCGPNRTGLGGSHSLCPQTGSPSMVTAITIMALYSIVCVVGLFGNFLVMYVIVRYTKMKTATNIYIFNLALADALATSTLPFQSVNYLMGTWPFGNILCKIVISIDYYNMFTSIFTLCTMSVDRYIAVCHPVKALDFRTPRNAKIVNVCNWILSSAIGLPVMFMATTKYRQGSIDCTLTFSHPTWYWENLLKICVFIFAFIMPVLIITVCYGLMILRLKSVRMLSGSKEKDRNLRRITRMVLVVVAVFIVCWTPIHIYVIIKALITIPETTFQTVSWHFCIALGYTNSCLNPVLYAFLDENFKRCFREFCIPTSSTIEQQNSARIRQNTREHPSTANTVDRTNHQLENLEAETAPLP

Mu-type opioid receptor [13] = molecular target: T1, Mu-type opioid receptor; test: Displacement of [3H]DAMGO from MOP (unknown origin) stably expressed in HEK293 cells by liquid scintillation counter analysis; type: cell-based
[14] = molecular target: T2, Delta-type opioid receptor; test: Displacement of [3H]DPDPE from DOP (unknown origin) stably expressed in HEK293 cells by liquid scintillation counter analysis; type: cell-based
Mu-type opioid receptor [15] = molecular target: T1, Mu-type opioid receptor; test: Agonist activity at MOP (unknown origin) stably expressed in HEK293 cells assessed as forskolin stimulated cAMP accumulation incubated for 30 mins by radioactivity based scintillation counter analysis; type: functional, cell-based
Mu-type opioid receptor [16] = molecular target: T1, Mu-type opioid receptor; test: Agonist activity at MOP (unknown origin) stably expressed in HEK293 cells assessed as forskolin stimulated cAMP accumulation incubated for 30 mins by radioactivity based scintillation counter analysis relative to control; type: functional, cell-based; details: filed as agonist

NC(=O)[C@@H]1CC(=O)NCCCC[C@@H](NC(=O)[C@@H](N)Cc2ccc(O)cc2)C(=O)N[C@@H](c2ccc(F)cc2F)C(=O)N[C@@H](c2ccccc2)C(=O)N1
remaining at […] [1]: 93%

Cc1cc(O)cc(C)c1C[C@H](N)C(=O)O
half-life [2]: ≥ 5 h
half-life [3]: ≥ 5 h

N=C(N)NCCC[C@@H](NC(=O)[C@@H](N)Cc1ccc(O)cc1)C(=O)N[C@@H](Cc1ccccc1)C(=O)NCC(=O)N[C@@H](Cc1ccc(O)cc1)C(N)=O
ED50 (Mus musculus [4]): 20.2 pmol
IC50 (Mu-type opioid receptor [5]): 160 nM

Cc1ccccc1[C@@H]1NC(=O)[C@H](NC(=O)[C@@H](N)Cc2c(C)cc(O)cc2C)CCCCNC(=O)C[C@@H](C(N)=O)NC(=O)[C@H](c2ccccc2)NC1=O
EC50 (Mu-type opioid receptor [6]): 5.62 nM
ED50 (Mus musculus [7]): 0.03 µg
IC50 (Mu-type opioid receptor [8]): 1.09 nM
IC50 [9]: 198 nM
remaining at […] [1]: 85%

Cc1cc(O)cc(C)c1C[C@H](N)C(=O)N[C@@H]1CCCCNC(=O)C[C@@H](C(N)=O)NC(=O)[C@H](c2ccccc2)NC(=O)[C@H](c2ccc(F)cc2F)NC1=O
remaining at […] [1]: 93%

C[C@@H](NC(=O)[C@@H](N)Cc1ccc(O)cc1)C(=O)N[C@@H](Cc1ccccc1)C(=O)NCC(=O)O (H-Y[dA]FG-OH)
Ki (Mu-type opioid receptor [10]): 11.9 nM
Ki [11]: 1800 nM
Activity (Rattus norvegicus): 25%
IC50 (Mu-type opioid receptor [12]): 263 nM
IC50 (Mu-type opioid receptor [5]): 34.5 nM

Cc1cc(O)cc(C)c1C[C@H](N)C(=O)N[C@@H]1CCCCNC(=O)C[C@@H](C(N)=O)NC(=O)[C@H](c2ccccc2)NC(=O)[C@H](c2ccccc2)NC1=O
EC50 (Mu-type opioid receptor [6]): 1.73 nM
ED50 (Mus musculus [7]): 0.02 µg
IC50 (Mu-type opioid receptor [8]): 0.26 nM
IC50 [9]: 400 nM
remaining at […] [1]: 85%

C=C(C(N)=O)[C@@H](NC(=O)[C@H](Cc1ccccc1)NC(=O)[C@@H](C)N(C)C(=O)[C@@H](N)Cc1ccc(O)cc1)c1ccccc1
Ki (Mu-type opioid receptor [13]): 0.61 nM
Ki [14]: 4280 nM
EC50 (Mu-type opioid receptor [15]): 4.39 nM
Emax (Mu-type opioid receptor [16]): 80.4%

C[C@@H](NC(=O)[C@@H](N)Cc1ccc(O)cc1)C(=O)N[C@@H](Cc1ccccc1)C(=O)NCC(=O)N[C@@H](Cc1ccc(O)cc1)C(=O)N1CCC[C@H]1C(=O)N[C@@H](CO)C(N)=O
Activity (Rattus norvegicus): <0.05%

C[C@@H](NC(=O)[C@@H](N)Cc1ccc(O)cc1)C(=O)N[C@@H](Cc1ccccc1)C(=O)NCC(=O)N[C@@H](Cc1ccc(O)cc1)C(=O)N1CCC[C@H]1C(N)=O
Ki (Mu-type opioid receptor [10]): 1.6 nM
Ki [11]: 320 nM
Activity (Rattus norvegicus): 25%
IC50 (Mu-type opioid receptor [12]): 43.2 nM
IC50 (Mu-type opioid receptor [5]): 2.7 nM

Cc1cc(O)cc(C)c1C[C@H](N)C(=O)N[C@@H]1CCCCNC(=O)C[C@@H](C(N)=O)NC(=O)[C@H](c2ccccc2)NC(=O)[C@H](c2ccc(C(F)(F)F)cc2)NC1=O
remaining at […] [1]: 93%

Cc1cc(O)cc(C)c1C[C@H](N)C(=O)N[C@@H]1CCCCNC(=O)C[C@@H](C(N)=O)NC(=O)[C@H](c2ccc(F)cc2F)NC(=O)[C@H](c2ccccc2)NC1=O
remaining at […] [1]: 93%

Cc1ccc([C@@H]2NC(=O)[C@H](NC(=O)[C@@H](N)Cc3c(C)cc(O)cc3C)CCCCNC(=O)C[C@@H](C(N)=O)NC(=O)[C@H](c3ccccc3)NC2=O)cc1
EC50 (Mu-type opioid receptor [6]): 2.82 nM
ED50 (Mus musculus [7]): 0.39 µg
IC50 (Mu-type opioid receptor [8]): 1.43 nM
IC50 [9]: 156 nM
remaining at […] [1]: 85%

C[C@@H](NC(=O)[C@@H](N)Cc1ccc(O)cc1)C(=O)N[C@@H](Cc1ccccc1)C(=O)NCC(=O)N[C@@H](Cc1ccc(O)cc1)C(N)=O (H-Y[dA]FGY-NH2)
Ki (Mu-type opioid receptor [10]): 0.98 nM
Ki [11]: 88 nM
Activity (Rattus norvegicus): 27%
IC50 (Mu-type opioid receptor [12]): 23.8 nM
IC50 (Mu-type opioid receptor [5]): 2.9 nM

C=C(C(=O)O)[C@@H](N)c1ccco1
half-life [2]: ≥ 5 h
half-life [3]: ≥ 5 h

Cc1cc(O)cc(C)c1C[C@H](N)C(=O)N[C@@H]1CCCCNC(=O)C[C@@H](C(N)=O)NC(=O)[C@H](c2ccccc2)NC(=O)[C@H](c2ccc(F)cc2)NC1=O
remaining at […] [1]: 93%

Cc1cc(O)cc(C)c1C[C@H](N)C(=O)N[C@@H]1CCCCNC(=O)C[C@@H](C(N)=O)NC(=O)[C@H](c2ccc(C(F)(F)F)cc2)NC(=O)[C@H](c2ccccc2)NC1=O
remaining at […] [1]: 93%

C=C(C(=O)O)[C@@H](N)c1ccccc1
half-life [2]: ≥ 5 h
half-life [3]: ≥ 5 h

N=C(N)NCCC[C@@H](NC(=O)[C@@H](N)Cc1ccc(O)cc1)C(=O)N[C@@H](Cc1ccccc1)C(=O)NCC(=O)N[C@@H](Cc1ccc(O)cc1)C(=O)N1CCC[C@H]1C(N)=O
ED50 (Mus musculus [4]): 12.5 pmol
IC50 (Mu-type opioid receptor [5]): 190 nM

N=C(N)NCCC[C@@H](NC(=O)[C@@H](N)Cc1ccc(O)cc1)C(N)=O
ED50 (Mus musculus [4]): 47000 pmol
IC50 (Mu-type opioid receptor [5]): 44000 nM
